Data published in BindingDB's records for doi:10.1016/j.bmcl.2004.02.106 (Merck Research Laboratories, 2004).
Several values for one entry are separate records, joined by “and”; a condition that tells them apart may be missing. Equal entries are not always repeated.

Each compound was assayed against Sphingosine 1-phosphate receptor 5 (Homo sapiens) (UniProt Q9H228) (assay: Inhibition of [33P]-S1P binding to human Sphingosine 1-phosphate receptor 5 expressed on CHO cell membranes).
Sphingosine 1-phosphate receptor 5 (Homo sapiens), sequence (Q9H228 whole entry, looked up): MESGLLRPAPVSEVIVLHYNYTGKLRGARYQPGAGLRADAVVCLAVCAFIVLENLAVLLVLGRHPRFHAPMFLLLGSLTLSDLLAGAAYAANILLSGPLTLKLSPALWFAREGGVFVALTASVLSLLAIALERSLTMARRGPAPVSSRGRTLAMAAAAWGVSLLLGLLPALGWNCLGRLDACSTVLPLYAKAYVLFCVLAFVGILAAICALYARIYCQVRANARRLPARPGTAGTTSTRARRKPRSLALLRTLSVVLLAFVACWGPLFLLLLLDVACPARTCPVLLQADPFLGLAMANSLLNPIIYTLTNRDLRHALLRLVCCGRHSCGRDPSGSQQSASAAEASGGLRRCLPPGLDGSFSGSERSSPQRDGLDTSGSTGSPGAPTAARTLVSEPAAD

| IC50 | Structure (SMILES) |
| --- | --- |
| 1 µM | CCCCCCCCc1ccc(CCC(N)CCC(=O)O)cc1 (centres undefined) [4-Amino-6-(4-octyl-phenyl)-hexanoic acid] |
| 0.027 µM and 0.073 µM | CCCCCCCCc1ccc(CC[C@H](N)CC(=O)[PH](O)(O)O)cc1 |
| 0.24 µM and 0.076 µM | CCCCCCCCc1ccc(CCC(N)C(=O)C[PH](O)(O)O)cc1 (centres undefined) |
| 0.0045 µM and 0.033 µM | CCCCCCCCc1ccc(CC[C@@H](N)CC(=O)[PH](O)(O)O)cc1 |
